In patent publication US8735384B2, “Amino heteroaryl compounds as beta-secretase modulators and methods of use” (Amgen Inc., priority 2010, dated 2014):

Experiments:
BACE1 = BACE1 (Homo sapiens, UniProt P56817); assay: In vitro enzymatic BACE FRET assay; assay type: biochemical; conditions: beta secretase enzyme 0.2 nM, FRET substrate 50 nM, pH 4.2; read-out: BACE1 FRET assay (IC50 class)
Method in brief: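 Enzyme activity was measured as release of quenching from a 50 nM fluorophore/quencher peptide spanning the cleavage site, over 1 h. This followed 1 h pre-incubation of 0.2 nM enzyme with compound dilutions at pH 4.2 (acetate, 10% DMSO, genapol). Tris addition ended the reaction before fluorescence was measured.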

[1] = test system: Aβ40 in conditioned medium of cells stably expressing Amyloid Precursor Protein (APP); assay: In vitro BACE cell-based assay (HEK cell assay), Aβ40 sandwich ELISA; conditions: Homo sapiens, HEK293, 24 h, inhibition of Aβ40, 24 h incubation, read-out: HEK cell assay (IC50 class)
Method in brief: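 Aβ40 in conditioned medium measured after 24 h compound exposure (10-point series, 100 μM or 10 μM start, 0.1% DMSO) of cells stably expressing APP, seeded 40K/well. Detection: pAb40/6E10-biotin sandwich ELISA at 4°C with time-resolved europium read-out; IC50 derived from percent of control.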

Chain of BACE1 (P56817 46-501, species assumed): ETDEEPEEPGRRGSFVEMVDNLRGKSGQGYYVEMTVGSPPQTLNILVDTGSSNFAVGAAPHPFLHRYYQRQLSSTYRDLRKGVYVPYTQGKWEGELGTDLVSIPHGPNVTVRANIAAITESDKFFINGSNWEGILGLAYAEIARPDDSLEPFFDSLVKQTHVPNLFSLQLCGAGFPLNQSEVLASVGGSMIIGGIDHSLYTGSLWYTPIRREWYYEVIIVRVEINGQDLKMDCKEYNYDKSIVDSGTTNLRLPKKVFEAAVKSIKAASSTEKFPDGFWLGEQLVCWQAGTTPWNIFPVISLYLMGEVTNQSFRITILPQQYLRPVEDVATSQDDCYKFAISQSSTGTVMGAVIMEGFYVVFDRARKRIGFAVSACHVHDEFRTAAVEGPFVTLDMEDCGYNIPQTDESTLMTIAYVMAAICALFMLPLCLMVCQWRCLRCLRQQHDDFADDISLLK

| Compound | IC50 (BACE1) | IC50 [1] |
| --- | --- | --- |
| CCOC(=O)c1cc(F)cc(C)c1-c1ccc2nc(N)c(N3CCOCC3)cc2c1 [Example 129, ethyl 2-(2-amino-3-morpholinoquinolin-6-yl)-5-fluoro-3-methylbenzoate] | 100 to 500 nM | 1010 to 5000 nM |
| Cc1cccc(C(=O)C2CC2)c1-c1ccc2nc(N)c(N3CCOCC3)cc2c1 [Example 186, (2-(2-amino-3-morpholinoquinolin-6-yl)-3-methylphenyl)(cyclopropyl)methanone] | 100 to 500 nM | 1010 to 5000 nM |
| CC(C)(C)CC(=O)c1ccccc1-c1ccc2nc(N)c(N3CCOCC3)cc2c1 [Example 153, 1-(2-(2-amino-3-morpholinoquinolin-6-yl)phenyl)-3,3-dimethylbutan-1-one] | 100 to 500 nM | > 5000 nM |
| Cc1coc(-c2cccc(C)c2-c2ccc3nc(N)c(N4CCOCC4)cc3c2)n1 [Example 31, 6-(2-methyl-6-(4-methyloxazol-2-yl)phenyl)-3-morpholinoquinolin-2-amine] | 100 to 500 nM | > 5000 nM |
| Cc1cccc(C(=O)N(C)CC(F)(F)F)c1-c1ccc2nc(N)c(N3CCOCC3)cc2c1 [Example 100, 2-(2-amino-3-morpholinoquinolin-6-yl)-N,3-dimethyl-N-(2,2,2-trifluoroethyl)benzamide] | 100 to 500 nM | 1010 to 5000 nM |
| Nc1nc2ccc(-c3cccc(Cl)c3C(=O)N3CCCC3)cc2cc1N1CCOCC1 [Example 141, (2-(2-amino-3-morpholinoquinolin-6-yl)-6-chlorophenyl)(pyrrolidin-1-yl)methanone] | 1010 to 5000 nM | > 5000 nM |
| Cc1cccc(Nc2ccccc2)c1-c1ccc2nc(N)c(N3CCOCC3)cc2c1 [Example 55, 6-(2-methyl-6-(phenylamino)phenyl)-3-morpholinoquinolin-2-amine] | 100 to 500 nM | > 5000 nM |

Continued, values first:

| IC50 (BACE1) | IC50 [1] | Compound |
| --- | --- | --- |
| < 100 nM | 1010 to 5000 nM | COC1CCN(C(=O)c2cccc(C)c2-c2ccc3nc(N)c(N4CCOCC4)cc3c2)CC1 [Example 72, (2-(2-amino-3-morpholinoquinolin-6-yl)-3-methylphenyl)(4-methoxypiperidin-1-yl)methanone] |
| < 100 nM | 1010 to 5000 nM | Cc1cccc(OCCOC(C)C)c1-c1ccc2nc(N)c(N3CCOCC3)cc2c1 [Example 170, 6-(2-(2-isopropoxyethoxy)-6-methylphenyl)-3-morpholinoquinolin-2-amine] |
| < 100 nM | 501 to 1000 nM | Nc1nc2ccc(-c3cc(Cl)ccc3C(=O)N3CCCC3)cc2cc1N1CCOCC1 [Example 154, (2-(2-amino-3-morpholinoquinolin-6-yl)-4-chlorophenyl)(pyrrolidin-1-yl)methanone] |
| < 100 nM | 100 to 500 nM | Cc1cccc(C(=O)N2CCCC2)c1-c1ccc2nc(N)c(C3CCCOCC3)cc2c1 (centres unmarked) [Example 206, (2-(2-amino-3-(oxepan-4-yl)quinolin-6-yl)-3-methylphenyl)(pyrrolidin-1-yl)methanone] |
| < 100 nM | 100 to 500 nM | Cc1cccc(C(=O)N2CCCC2)c1-c1ccc2nc(N)c(N3CCOCC3)cc2c1 [Example 1, (2-(2-amino-3-morpholinoquinolin-6-yl)-3-methylphenyl)(pyrrolidin-1-yl)methanone] |
| < 100 nM | 501 to 1000 nM | Cc1cccc(C(=O)N(C)C2CCCC2)c1-c1ccc2nc(N)c(N3CCOCC3)cc2c1 [Example 92, 2-(2-amino-3-morpholinoquinolin-6-yl)-N-cyclopentyl-N,3-dimethylbenzamide] |
| < 100 nM | 1010 to 5000 nM | Cc1cccc(C#CC(C)(C)C)c1-c1ccc2nc(N)c(N3CCOCC3)cc2c1 [Example 40, 6-(2-(3,3-dimethylbut-1-ynyl)-6-methylphenyl)-3-morpholinoquinolin-2-amine] |
| < 100 nM | 1010 to 5000 nM | Cc1cccc(Cc2ccccc2F)c1-c1ccc2nc(N)c(N3CCOCC3)cc2c1 [Example 202, 6-(2-(2-fluorobenzyl)-6-methylphenyl)-3-morpholinoquinolin-2-amine] |
| < 100 nM | 100 to 500 nM | Cc1cc(F)cc(C(=O)N2CCCC2)c1-c1ccc2nc(N)c(N3CCOCC3)cc2c1 [Example 27, (2-(2-amino-3-morpholinoquinolin-6-yl)-5-fluoro-3-methylphenyl)(pyrrolidin-1-yl)methanone] |
